Tests used:
P14 cells = assay: P14 splenocyte in vitro activation, re-stimulation and expansion; type: cell-based, mouse; conditions: 50 mM; for Fold of proliferation, Normalized to W/O: P14 cells
OT-1 cells = assay: OT-I-Tcf7GFP splenocyte screen: proliferation and Tim3−TCF-1+ ratio; type: cell-based, mouse; conditions: Day7, 50 mM
Description: Cell number was recorded on day 3 and day 7. On day 7, cells were stained with anti-CD8a (PerCP-Cy5.5) and anti-Tim3 (BV421) antibodies for flow cytometry or plate reader analysis.
Because TCF1 expression positively correlates with T cell stemness, the greater signal of EGFP a T cell expresses, the less differentiated the T cell is. Furthermore, if the compound also facilitates T cells proliferation, there would be more T cells per well in comparison to the untreated control. Therefore, a compound that not only maintains TCF-1 expression but also facilitates T cell growth would produce the strongest green fluorescence intensity. […] GlcA stands for glucuronic acid.

TILs from B16-OVA tumor = type: cell-based, mouse; conditions: day 7 rapid expansion
Description: TILs from B16-OVA tumor were isolated on day10 after inoculation, and Tim-3^−TCF/GFP^+ and Tim-3^+TCF/GFP^− in tetramer positive population were collected by live cell sorting (FIG. 15A). Phenotype features of Tim-3^−TCF/GFP^+ (FIG. 15B) and Tim-3^+TCF/GFP^− (FIG. 15C) were analyzed on day 7 after rapid expansion with feeder cells (TILs/feeder cell: 1/200) in the presence or absence of sugars.
To investigate which population that sugars mainly changed on T cells, B16-OVA cancer cells (7×10^5 cells) were subcutaneously inoculated into the left or right flank of TCF7^GFP mice expressing an EGFP fluorescent reporter from the endogenous Tcf7 locus, which enable us to track the expression of TCF-1 in live cells.

OT-1 splenocytes [1] = assay: Apoptosis (Annexin V) and IL-2 production of OT-1 splenocytes stimulated without IL-2; type: cell-based, mouse; conditions: OVA257-264 500 nM without IL-2, 5 days
Description: (§1) Naïve splenocytes from OT-1 mice were stimulated in vitro with OVA257-264 (500 nM) and IL-2 (60 IU/mL) in the presence or absence of an added compound for 3 days at a density of 1 million/mL (100 uL/well in 96/well plate), then expanded for 4 days. On day 7, PD-1, Tim3 and TCF-1 expressions were assessed by flow cytometry by staining cells with anti-CD8a (PerCP-Cy5.5), anti-Tim3 (BV421) and anti-TCF-1 (AF488) antibodies. For adoptive transfer, 0.6M B16-OVA cells (6×10^5) were inoculated subcutaneously 3 to 5 days before transfer in C57BL/6. On the day of adoptive transfer, mice were irradiated with 5 Gy X-ray, randomized according to tumor size, and intravenously injected with 0.2-0.3M of CD8+OT-1 T cells (2×10^5) expanded under different conditions, followed by administration of 50000 IU IL-2 every 12 h for four days. In the control group, mice were injected with cell-free vehicle only. For assessment of adoptive transfer of OT-1 CD8+ T cells activated and expanded by contacting the cells with fructose, on day 9 after transfer, anti-PD-1 (100 ug/mouse) was administered to the mice that had received T cell transfer. For assessment of adoptive transfer of OT-1 CD8+ T cells activated and expanded by contacting cells with Neu5Ac, on day 14 and day 21 after transfer, anti-PD-1 (100 ug/mouse) was administered to the mice that had received T cell transfer. The tumor growth was monitored every 3 to 4 days by measuring tumor size. Percent survival was also monitored and recorded within a period of 40 days post treatment. To evaluate tumor infiltrating OT-1 T cells, 0.6M B16-OVA cells (6×10^5) were inoculated subcutaneously 3 to 5 days before transfer in C57BL/6. On the day of adoptive transfer, mice were irradiated with 5 Gy X-ray, randomized according to tumor size, and intravenously injected with 0.2-0.3M of CD8+OT-1 T cells (2×10^5) expanded under different conditions, followed by administration of 50000 IU IL-2 every 12 h for four days. Tumors were then isolated and assessed for percentage of OT-I T cells from the total CD8+ T cells and OT-1 T cell number per gram of tumor tissue. To evaluate apoptosis, Naïve OT-1 splenocytes were stimulated by OVA257-264 (500 nM) without IL-2 in the presence of absence of sugars for 5 days followed by using Annexin V Apoptosis detection kit (Biolegend). […] To evaluate other cellular characteristics, naïve OT-1 splenocytes were stimulated by OVA257-264 (500 nM) with IL-2 (60 IU/mL) in the presence or absence of sugars for 7 or 8 days. On day 7 or 8 cells were taken and analyzed by assessment of ROS, NADPH/NADP+ ratio, and GSH/GSSG ratio.

HA-28z CAR T cells = assay: HA-28z (GD2) CAR T cell expansion with sugars; conditions: 50 mM, 14 days; both CD8^+ and CD4^+ CAR T cells
OT-I splenocytes = assay: OT-I splenocyte culture with purine/pyrimidine pathway compounds; type: cell-based, mouse; conditions: CD8+ T cells
Description: We therefore tested if purine and pyrimidine nucleotides have similar effects as N-Acetylneuraminic acid to help maintain less differentiated phenotypes of T cells during expansion. OT-I splenocytes were cultured with 500 nM […] peptide (OVA257-264) for three days at initial cell density of 1×10^6/mL to activate and expand the CD8+ T cell population. Different concentrations of the products or intermediates in purine or pyrimidine de novo synthesis pathways were added on day 3. The tested compounds include, e.g., guanosine, deoxyguanosine, adenosine, deoxyadenosine, inosine, xanthosine, orotidine, uridine, cytidine, deoxycytidine, thymidine, deoxythymidine, 5-Aminoimidazole-4-carboxamide ribonucleotide (AICAR), orotate, and dihydroorotate. The phenotype of expanded T cells were analyzed on day 5.

[2] = test system: MC38 TSA-reactive CD8+ TILs; assay: Rapid expansion of TSA-reactive CD8+ TILs from MC38 tumors; type: cell-based, mouse
Description: Sugars were added at the beginning or during the expansion of the TILs, and kept till the end of expansion. On expansion day 9, phenotypes of the expanded T cells were assessed, and the cells were used for adoptive transfer (FIG. 6E). For adoptive transfer, 0.5 million cells (B16-OVA or MC38) were inoculated subcutaneously on each mouse on day 0, Listeria monocytogenes-OVA (LM-OVA) infection 0.5 million CFU/mice on day 1, and blood analysis was recorded on day 7.

OT-1 splenocytes [3] = assay: ROS, NADPH/NADP+ ratio and GSH/GSSG ratio of OT-1 splenocytes; type: cell-based, mouse; conditions: day 7 or 8, with IL-2; vs T cells not treated with sugar
Description: as §1

B16-OVA tumor = type: in vivo, mouse
Description: as §1

CC(=O)N[C@H]1[C@H]([C@H](O)[C@H](O)CO)OC(O)(C(=O)O)C[C@@H]1O (stereo partly drawn) [Neu5Ac, N-acetylneuraminic acid]
Fold of proliferation, Normalized to W/O (P14 cells; Day6): 2.29 fold | Tim3^−TCF-1^+ ratio of CD8^+ T cells (%) (P14 cells; Day6, w/o 55.0): 97.4% | Fold of proliferation, Normalized to W/O (P14 cells; Day9): 1.40 fold | Tim3^−TCF-1^+ ratio of CD8^+ T cells (%) (P14 cells; Day9, w/o 3.5): 71.3% | Tim3^−TCF-1^+ ratio of CD8^+ T cells (%) (OT-1 cells; w/o 2.6): 59.6% | activity at 50000 µM (OT-1 cells; Mus musculus, Splenocyte, 168 h, OT-1 cells, read-out: Proliferation fold, Normalized to W/O): 143% | reversal of sorted Tim-3^+TCF-GFP^− back to Tim-3^−TCF-GFP^+ phenotype (TILs from B16-OVA tumor): partially reverse | maintenance of progenitor exhausted features of sorted Tim-3-TCF-GFP^+ TILs (TILs from B16-OVA tumor; vs without sugars): maintain more Tim-3^−TCF/GFP^+ cells | viability and apoptotic characteristics (OT-1 splenocytes [1]; vs T cells not treated with sugar): enhanced viability and differential apoptotic characteristics | production of IL-2 (OT-1 splenocytes [1]; vs no sugar): significantly greater | CAR T cells proliferated times faster than cells expanded without sugars (HA-28z CAR T cells): 1.5-2 times | purine and pyrimidine biosynthesis end products and certain intermediates (OT-I splenocytes): upregulated | cell surface anti-CLA (Cutaneous Lymphocyte-associated Antigen) staining [2]: significant increase | GSH/GSSG ratio (OT-1 splenocytes [3]): greater | NADPH/NADP+ ratio (OT-1 splenocytes [3]): greater | ROS (OT-1 splenocytes [3]): significantly less | capabilities to control tumor growth by way of tumor volume and survival rate (B16-OVA tumor; treated OT-1 T cells used with anti-PD-1 antibody treatment, vs untreated T cells): significantly better | tumor infiltrating OT-1 T cell numbers (B16-OVA tumor; treated T cells transferred to B16-OVA mice): increased
